According to patent US20110039762A1, “TARGETED ANTIMICROBIAL MOIETIES” (C3 JIAN, INC., priority 2009, published 2011):
“Also recorded” adds a separate entry of the source.

Experiments:
C. jeikeium = assay: Kill or inhibit growth/proliferation; morphology, biofilm and growth disruption (Tables 5, 6); type: cell-based, Corynebacterium jeikeium; set-up: key: A: Peptide aggregates; B: Less hyphal formation; Clumps; Diffuse clumps and small polyps; F: Diffuse growth; H: Thin; I: Growth inhibition; Microcolony formation; Rippled; Small polyps; Thick; W: Halo formation on top, microlonies on bottom; further: test concentration or dose not given here
[1] = system: microorganisms (e.g., bacteria, yeasts, fungi); assay: Targeting peptide binding to target microorganisms (Table 3); conditions: preferably 1x PBS; for Target(s): microorganism(s) the targeting peptide binds
microorganisms = assay: Peptides having multiple activities (targeting/binding, antimicrobial, growth or phenotype altering)
Excerpt: In certain embodiments, peptides described herein can have multiple activities. Thus for example, a peptide can have both binding/targeting activity and antimicrobial activity. Such peptides can be used, e.g., in a chimeric construct, for any or all of these properties. Thus, for example, a peptide designated “B” in Table 8 can be used as a targeting peptide. If it is also designated G or M it can also be used for antimicrobial activity.

E. faecalis = assay: Kill or inhibit growth/proliferation; morphology, biofilm and growth disruption (Tables 5, 6); type: cell-based, Enterococcus faecalis; set-up: key: A: Peptide aggregates; B: Less hyphal formation; Clumps; Diffuse clumps and small polyps; F: Diffuse growth; H: Thin; I: Growth inhibition; Microcolony formation; Rippled; Small polyps; Thick; W: Halo formation on top, microlonies on bottom; further: test concentration or dose not given here
MRSA = assay: as above; type: cell-based, Methicillin-resistant Staphylococcus aureus; set-up: key: A: Peptide aggregates; B: Less hyphal formation; Clumps; Diffuse clumps and small polyps; F: Diffuse growth; H: Thin; I: Growth inhibition; Microcolony formation; Rippled; Small polyps; Thick; W: Halo formation on top, microlonies on bottom
S. epidermidis = assay: as above; type: cell-based, Staphylococcus epidermidis; set-up: key: A: Peptide aggregates; B: Less hyphal formation; Clumps; Diffuse clumps and small polyps; F: Diffuse growth; H: Thin; I: Growth inhibition; Microcolony formation; Rippled; Small polyps; Thick; W: Halo formation on top, microlonies on bottom
S. pneumoniae = assay: as above; type: cell-based, Streptococcus pneumoniae; set-up: key: A: Peptide aggregates; B: Less hyphal formation; Clumps; Diffuse clumps and small polyps; F: Diffuse growth; H: Thin; I: Growth inhibition; Microcolony formation; Rippled; Small polyps; Thick; W: Halo formation on top, microlonies on bottom; further: test concentration or dose not given here
C. jejuni = assay: as above; type: cell-based, Campylobacter jejuni; set-up: key: A: Peptide aggregates; B: Less hyphal formation; Clumps; Diffuse clumps and small polyps; F: Diffuse growth; H: Thin; I: Growth inhibition; Microcolony formation; Rippled; Small polyps; Thick; W: Halo formation on top, microlonies on bottom; further: test concentration or dose not given here
E. coli = assay: as above; type: cell-based, Escherichia coli; set-up: key: A: Peptide aggregates; B: Less hyphal formation; Clumps; Diffuse clumps and small polyps; F: Diffuse growth; H: Thin; I: Growth inhibition; Microcolony formation; Rippled; Small polyps; Thick; W: Halo formation on top, microlonies on bottom; further: test concentration or dose not given here
M. luteus = assay: as above; type: cell-based, Micrococcus luteus; set-up: key: A: Peptide aggregates; B: Less hyphal formation; Clumps; Diffuse clumps and small polyps; F: Diffuse growth; H: Thin; I: Growth inhibition; Microcolony formation; Rippled; Small polyps; Thick; W: Halo formation on top, microlonies on bottom
[2] = binding in aqueous buffers depending on peptide solubility
[3] = peptide binding conducted in aqueous buffers varied by peptide solubility
Wherever Organism, effect is given: test concentration or dose not given here.

Substance	Organism, effect (C. jeikeium)	Target(s) [1, 2]	Activities (microorganisms)	Organism, effect (E. faecalis)	Organism, effect (MRSA)	Organism, effect (S. epidermidis)	Organism, effect (S. pneumoniae)	Organism, effect (C. jejuni)	Organism, effect (E. coli)	Target(s) [1, 3]	Organism, effect (M. luteus)	Target(s) (microorganisms bound by the targeting peptide) ([1]; peptide binding in aqueous buffers varied by peptide solubility)
PF-133: peptide having multiple activities (GDPTAGQKPVECP; Peptide with targeting and/or antimicrobial activity)	C. jeikeium (R)	S. epidermidis; also recorded: C. jeikeium; also recorded: C. jejuni; also recorded: M. smegmatis	G B	–	–	–	–	–	–	–	–	–
PF-363: peptide having multiple activities (chain 1 SMLSVTVMCLMHASVAANQAMEKKV; chain 2 SMLSVTVMCLMHASVAANQAMEKKV; Peptide with targeting and/or antimicrobial activity)	–	B. subtilis; also recorded: E. coli; also recorded: P. aeruginosa; also recorded: C. albicans; also recorded: S. pneumoniae; also recorded: E. faecalis	G B	E. faecalis (D)	MRSA (H)	S. epidermidis (S)	S. pneumoniae (R)	C. jejuni (D)	E. coli (C)	–	–	–
PF-390: peptide having multiple activities (chain 1 VVAYVITQVGAIRF; chain 2 VVAYVITQVGAIRF; Peptide with targeting and/or antimicrobial activity)	–	–	G B	E. faecalis (D)	MRSA (D)	S. epidermidis (D)	S. pneumoniae (D)	C. jejuni (D)	E. coli (C)	S. epidermidis and P. aeruginosa and C. albicans and MRSA	–	–
PF-418: peptide having multiple activities (FFLVHFYIRKRKGKVSIFLNYF; Peptide with targeting and/or antimicrobial activity)	–	–	G B	E. faecalis (D)	MRSA (D)	S. epidermidis (M)	S. pneumoniae (D)	C. jejuni (D)	E. coli (C)	–	–	–
PF-469: peptide having multiple activities (chain 1 YKVNYNNIDNHFNTLRH; chain 2 YKVNYNNIDNHFNTLRH; Peptide with targeting and/or antimicrobial activity)	–	–	G B	E. faecalis (D)	MRSA (D)	S. epidermidis (D)	S. pneumoniae (D)	C. jejuni (D)	E. coli (C)	–	–	–
PF-562: peptide having multiple activities (chain 1 TPEQWLERSTVVVTGLLNRK; chain 2 TPEQWLERSTVVVTGLLNRK; Peptide with targeting and/or antimicrobial activity)	–	–	G B	–	MRSA (M)	S. epidermidis (A)	S. pneumoniae (D)	C. jejuni (R)	–	–	M. luteus (R)	–
PF-576: peptide having multiple activities (chain 1 AYSGELPEPLVRKMSKEQVRSVMGK; chain 2 AYSGELPEPLVRKMSKEQVRSVMGK; Peptide with targeting and/or antimicrobial activity)	–	–	G B	–	MRSA (R)	S. epidermidis (A)	S. pneumoniae (C)	C. jejuni (C)	E. coli (A)	M. luteus; also recorded: P. mirabilis; also recorded: E. coli; also recorded: P. aeruginosa; also recorded: C. albicans; also recorded: S. pneumoniae	–	–
PF-584: peptide having multiple activities (SYIKNLSNQKFLIAF; Peptide with targeting and/or antimicrobial activity)	–	–	G B	E. faecalis (D)	MRSA (D)	S. epidermidis (C)	S. pneumoniae (D)	C. jejuni (D)	E. coli (C)	S. epidermidis and M. luteus and P. mirabilis and C. albicans and MRSA and S. pneumoniae and E. faecalis and C. jeikeium	–	–
PF-586: peptide having multiple activities (FFNQANYFFKEF; Peptide with targeting and/or antimicrobial activity)	–	–	G B	E. faecalis (D)	MRSA (D)	S. epidermidis (C)	S. pneumoniae (D)	C. jejuni (D)	E. coli (C)	–	–	–
PF-592: peptide having multiple activities (IMKNYKYFKLFIVKYALF; Peptide with targeting and/or antimicrobial activity)	–	–	G B	E. faecalis (D)	MRSA (D)	S. epidermidis (M)	S. pneumoniae (D)	C. jejuni (S)	E. coli (C)	–	–	–
PF-595: peptide having multiple activities (LQNKIYELLYIKERSKLCS; Peptide with targeting and/or antimicrobial activity)	–	–	G B	E. faecalis (D)	MRSA (D)	S. epidermidis (C)	S. pneumoniae (R)	C. jejuni (D)	E. coli (C)	–	–	–
PF-596: peptide having multiple activities (SKMWDKILTILILILELIRELIKL; Peptide with targeting and/or antimicrobial activity)	–	–	G B	E. faecalis (D)	MRSA (D)	S. epidermidis (D)	S. pneumoniae (D)	C. jejuni (D)	E. coli (C)	–	–	–
PF-598: peptide having multiple activities (MKFMLEVRNKAISAYKEITRTQI; Peptide with targeting and/or antimicrobial activity)	–	–	G B	E. faecalis (R)	MRSA (D)	S. epidermidis (R)	S. pneumoniae (R)	C. jejuni (R)	E. coli (C)	–	–	S. epidermidis and M. luteus and P. mirabilis and P. aeruginosa and C. albicans and MRSA and S. pneumoniae and C. jeikeium
PF-610: peptide having multiple activities (VFLKLKTSKIDLASIIFYP; Peptide with targeting and/or antimicrobial activity)	–	–	G B	E. faecalis (D)	MRSA (D)	S. epidermidis (C)	S. pneumoniae (D)	C. jejuni (D)	E. coli (C)	–	–	–
PF-615: peptide having multiple activities (FLNRFIFYIFTVKTKSALIKNLFLD; Peptide with targeting and/or antimicrobial activity)	–	–	G B	E. faecalis (D)	MRSA (D)	S. epidermidis (D)	S. pneumoniae (D)	C. jejuni (D)	E. coli (C)	–	–	–
